According to ChEMBL document CHEMBL4330185, “Computer-Assisted Discovery and Structural Optimization of a Novel Retinoid X Receptor Agonist Chemotype” (ACS Med Chem Lett, 2019):
Values after ≈ are worked out from the molar mass of the structure shown. Active and inactive are the calls of the source. No cut-off for these calls is given here.

Experiments:
[1] = target: T1, Retinoic acid receptor RXR-beta (Homo sapiens, UniProt P28702); experiment: Agonist activity at human Gal4-DBD fused RXRbeta LBD expressed in HEK293T cells after 12 to 14 hrs by luciferase reporter gene assay; format: cell-based
T1 sequence (P28702 whole entry): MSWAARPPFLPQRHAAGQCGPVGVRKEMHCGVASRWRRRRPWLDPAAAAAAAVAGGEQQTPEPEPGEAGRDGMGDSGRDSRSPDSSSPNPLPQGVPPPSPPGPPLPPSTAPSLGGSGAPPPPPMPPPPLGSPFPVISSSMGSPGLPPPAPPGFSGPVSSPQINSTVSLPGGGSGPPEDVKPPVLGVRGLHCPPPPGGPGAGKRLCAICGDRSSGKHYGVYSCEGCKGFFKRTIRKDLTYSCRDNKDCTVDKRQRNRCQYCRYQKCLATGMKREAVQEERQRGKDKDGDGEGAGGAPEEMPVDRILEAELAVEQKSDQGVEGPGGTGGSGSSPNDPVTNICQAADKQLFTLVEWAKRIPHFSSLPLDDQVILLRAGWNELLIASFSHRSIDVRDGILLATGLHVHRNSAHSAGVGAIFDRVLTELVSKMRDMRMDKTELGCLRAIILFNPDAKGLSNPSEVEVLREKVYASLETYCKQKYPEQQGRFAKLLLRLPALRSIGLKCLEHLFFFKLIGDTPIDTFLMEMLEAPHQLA

[2] = target: T2, Retinoic acid receptor RXR-gamma (Homo sapiens, UniProt P48443); experiment: Agonist activity at human Gal4-DBD fused RXRgamma LBD expressed in HEK293T cells after 12 to 14 hrs by luciferase reporter gene assay; format: cell-based
T2 sequence (P48443 whole entry): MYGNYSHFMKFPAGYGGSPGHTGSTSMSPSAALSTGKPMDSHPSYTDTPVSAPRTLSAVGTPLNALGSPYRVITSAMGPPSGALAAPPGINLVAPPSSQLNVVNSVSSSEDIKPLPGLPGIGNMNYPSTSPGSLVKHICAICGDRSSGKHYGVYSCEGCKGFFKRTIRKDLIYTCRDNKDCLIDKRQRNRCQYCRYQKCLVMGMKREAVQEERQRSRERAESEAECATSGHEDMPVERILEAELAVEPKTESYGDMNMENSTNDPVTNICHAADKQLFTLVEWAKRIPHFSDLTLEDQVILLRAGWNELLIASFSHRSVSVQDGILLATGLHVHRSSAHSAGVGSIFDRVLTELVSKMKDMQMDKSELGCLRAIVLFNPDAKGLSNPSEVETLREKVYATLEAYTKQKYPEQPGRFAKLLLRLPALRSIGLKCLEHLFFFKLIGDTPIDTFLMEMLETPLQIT

[3] = target: T3, Retinoic acid receptor RXR-alpha (Homo sapiens, UniProt P19793); experiment: Agonist activity at human Gal4-DBD fused RXRalpha LBD expressed in HEK293T cells after 12 to 14 hrs by luciferase reporter gene assay; format: cell-based
T3 sequence (P19793 whole entry): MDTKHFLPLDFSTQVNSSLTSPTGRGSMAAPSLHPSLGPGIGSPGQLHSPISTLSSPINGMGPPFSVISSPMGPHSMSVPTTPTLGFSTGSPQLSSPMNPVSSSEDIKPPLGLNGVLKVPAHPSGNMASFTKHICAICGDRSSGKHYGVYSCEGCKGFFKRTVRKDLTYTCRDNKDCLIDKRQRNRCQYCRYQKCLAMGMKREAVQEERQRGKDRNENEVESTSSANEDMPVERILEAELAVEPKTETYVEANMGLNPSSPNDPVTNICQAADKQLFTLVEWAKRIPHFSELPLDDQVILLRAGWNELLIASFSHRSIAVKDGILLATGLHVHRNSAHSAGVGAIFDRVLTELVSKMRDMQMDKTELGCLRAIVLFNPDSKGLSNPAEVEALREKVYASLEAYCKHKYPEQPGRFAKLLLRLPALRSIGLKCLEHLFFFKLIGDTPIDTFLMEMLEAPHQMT

[4] = target: T4, Retinoic acid receptor RXR-beta (Homo sapiens) (UniProt P28702); experiment: Agonist activity at human Gal4-DBD fused RXRbeta LBD expressed in HEK293T cells after 12 to 14 hrs by luciferase reporter gene assay relative to bexarotene; format: cell-based
T4 sequence (whole entry): T1 sequence (P28702 whole entry)

[5] = target: T5, Retinoic acid receptor RXR-alpha (Homo sapiens) (UniProt P19793); experiment: Agonist activity at human Gal4-DBD fused RXRalpha LBD expressed in HEK293T cells after 12 to 14 hrs by luciferase reporter gene assay relative to bexarotene; format: cell-based
T5 sequence (whole entry): T3 sequence (P19793 whole entry)

[6] = target: T6, Retinoic acid receptor RXR-gamma (Homo sapiens) (UniProt P48443); experiment: Agonist activity at human Gal4-DBD fused RXRgamma LBD expressed in HEK293T cells after 12 to 14 hrs by luciferase reporter gene assay relative to bexarotene; format: cell-based
T6 sequence (whole entry): T2 sequence (P48443 whole entry)

[7] = target: T6, Retinoic acid receptor RXR-gamma (Homo sapiens); experiment: Agonist activity at human Gal4-DBD fused RXRgamma LBD expressed in HEK293T cells at 30 uM after 12 to 14 hrs by luciferase reporter gene assay; format: cell-based
[8] = target: T5, Retinoic acid receptor RXR-alpha (Homo sapiens); experiment: Agonist activity at human Gal4-DBD fused RXRalpha LBD expressed in HEK293T cells at 10 uM after 12 to 14 hrs by luciferase reporter gene assay; format: cell-based
[9] = Aqueous solubility of the compound after 24 hrs by HPLC analysis; format: physicochemical; settings: water
[10] = Lipophilicity, log P of the compound by HPLC analysis; format: physicochemical
[11] = system: HepG2; experiment: Cytotoxicity against human HepG2 cells up to 100 uM after 48 hrs by WST1 assay; format: cell-based; settings: hepg2, 48 h

SMILES	EC50 ([1]; read-out: EC50) [µM]	EC50 ([3]; read-out: EC50) [µM]	Emax [4] [%]	EC50 ([2]; read-out: EC50) [µM]	Emax [5] [%]	Emax [6] [%]	other results
Cc1ccc(OCc2ccc(C(=O)O)cc2)c(-c2ccccc2)c1	> 30	> 30					EC50 [2]: Nd(Toxic)
O=C(O)c1ccc(OCc2ccc3c(c2)CCC3)cc1	21	> 30	25	> 30			
O=C(O)c1ccc(COc2cc3c(cc2-c2ccccc2)CCC3)cc1	> 30	> 30		> 30			
O=C(O)c1ccc(COc2ccccc2C(F)(F)F)cc1	2.1	1.1	22	10	22	52	
O=C(O)c1ccc(COc2ccc(C(F)(F)F)cc2C(F)(F)F)cc1	4.3	6	66	11	118	49	
CC(C)c1ccc(OCc2ccc(C(=O)O)cc2)cc1	16	16	9.5		11		Activity [7]: inactive
O=C(O)c1ccc(COc2ccc(Br)cc2)cc1	48	40	36	> 30	21		
CC(C)(C)c1ccc(OCc2ccc(C(=O)O)cc2)cc1	8.9	7.8	15	> 30	16		Activity [8]: Active
CCc1ccc(OCc2ccc(C(=O)O)cc2)cc1	35	28	7.4		11		Activity [7]: inactive
O=C(O)c1ccc(COc2ccccc2OC(F)(F)F)cc1	1.9	1.1	18	4.2	26	25	
Cc1ccccc1OCc1ccc(C(=O)O)cc1	8.6	5	27	19	24	19	
COc1ccccc1OCc1ccc(C(=O)O)cc1	> 30	29		> 30	21		
CC(C)(C)c1ccc(OCc2ccc(C(=O)O)cc2)c(Cl)c1	5.3	4.2	36	4	37	14	
CN(Cc1ccc(C(=O)O)cc1)c1ccc2c(c1)CCC2	9.9	10	15	30	22	8.5	
CC(C)(C)c1ccc(OCc2ccc(C(=O)O)cc2)c(-c2ccccc2)c1	> 30	> 30		> 30			
O=C(O)Cc1ccc(COc2ccc3c(c2)CCC3)cc1	18	13	9.9	22	47	8.8	

SMILES	EC50 ([1]; read-out: EC50) [µM]	EC50 ([3]; read-out: EC50) [µM]	Emax [4] [%]	EC50 ([2]; read-out: EC50) [µM]	Emax [5] [%]	Emax [6] [%]	other results
O=C(O)c1ccc(COc2ccccc2)cc1	> 30	> 30		> 30			
CC(C)(C)c1ccccc1OCc1ccc(C(=O)O)cc1	0.37	0.16	12	1.1	11	21	
O=C(O)c1ccc(COc2ccccc2Cl)cc1	8.3	9.9	31	> 30	58		
O=C(O)c1ccc(COc2ccccc2F)cc1	> 30	> 30		> 30			
C=C(c1ccc(C(=O)O)cc1)c1cc2c(cc1C)C(C)(C)CCC2(C)C [BEXAROTENE]							solubility at 24 h [9]: 0.31 µg/mL (≈ 0.89 µM); logP [10]: 5.2; Activity [11]: Non-Toxic
O=C(O)CCCc1ccc(COc2ccc3c(c2)CCC3)cc1							EC50 [1]: Nd(Toxic); EC50 [2]: Nd(Toxic); EC50 [3]: Nd(Toxic)
O=C(O)c1ccc(OCc2ccccc2-c2ccccc2)cc1	> 30	> 30					EC50 [2]: Nd(Toxic)
O=C(O)c1ccc(OCc2cccc(Cl)c2)cc1	28	27	24	29	27	29	
O=C(O)c1ccc(CNc2ccc3c(c2)CCC3)cc1	> 30	> 30		> 30			
O=C(O)c1ccccc1COc1ccc2c(c1)CCC2	> 30	> 30		> 30			
CC(C)(C)c1ccc(OCc2ccc(C(=O)O)cc2)c(C(C)(C)C)c1							EC50 [1]: Nd(Toxic); EC50 [2]: Nd(Toxic); EC50 [3]: Nd(Toxic)
O=C(O)CCc1ccc(COc2ccc3c(c2)CCC3)cc1	10	6.7	29	21	28	19	
O=C(O)c1ccc(COc2cccc(Cl)c2)cc1	20	17	26	44	54	9.3	
O=C(O)c1ccc(COc2ccc(Cl)cc2)cc1	> 30	> 30		> 30			
O=C(O)c1ccc(COc2ccc(I)cc2)cc1	29	24	25	> 30	19		
